Laboratory results reported in patent publication EP2518139A1, “Use of indirubin derivatives for producing pluripotent stem cells” (Universitätsklinikum Jena, priority 2011, dated 2012).
“Also recorded” adds a separate entry of the source.

How the values were obtained:
Smad1/5/8 = experiment: Immunostaining of pan-Smad1/5/8 in C2C12; type: cell-based, mouse; settings: C2C12, BMP2 (100ng/mL), 12h
Method: Immunostaining: The serum-depleted C2C12 cells were coinbubated with BMP2 (100ng/mL) and E738 at various concentration as indicated for 12h. Cells were fixed in 4% PFA and immunostained with Smad1/5/8 antibody (1:100) and DAPI as described previously.
To access the generality of the E738 effect on BMP/Smad, we treated C2C12, HFF and NIH 3T3 with various concentrations of E738 and probed cell extracts with p- and pan-Smad1/5/8 antibodies. […] In addition, E738 at 0.5µM concentration is already sufficient to reduce Smad1/5/8 in HFF and NIH3T3 implicating that fibroblast might be more sensitive to the IRDs treatment.

[1] = tested on: BMP- and TGFß-relative R-Smads; experiment: Immunoblot of BMP- and TGFß-relative R-Smads in HeLa cells (TGFß or FCS stimulation); type: cell-based, human
Stat3 = experiment: Immunoblot of p-Stat3 in HeLa cells; type: cell-based, human; settings: 1 h, BMP2 (100ng/mL), already from 0.1µM
Method: (§1) Western blot:: Cell extracts were homogenized in Urea-Lysis buffer (1mM EDTA,0.5% Triton X-100), 5mM NaF, 6M Urea, 1mM Na3VO4, 10µg/mL Pepstatin, 100µM PMSF and 3µg/mL Aprotinin in PBS). Enhanced chemiluminescence (ECL) Western blot analysis was performed. 20-40µg of total protein was resolved on 10% SDS-PAGE gels and immunoblotted with specific antibodies. Primary antibodies were incubated at a 1:1,000 dilution in TBS (pH 7.5) with 0.1% Tween-20 and 5% BSA/nonfat milk with gentle agitation overnight at 4°C. The proper secondary antibodies were incubated in TBS (pH 7.5) with 5% BSA/nonfat milk and 0.1 % Tween-20 at a 1:5,000 dilution for 1 h at room temperature.
(§2) To assess the effect of E738 on Wnt and Stat3 pathway in mammalian cellular context, HeLa cells were treated with E738 at increasing concentrations for 1 h. Here E804 was used as reference because of its well-known inhibition of Stat3 and Wnt. The antibodies of p-Stat3 and non-phosphorylation-ß-Catenin (NP-ß-Catenin, Ser33/37/Thr41), which can provide a convenient positive band if GSK3B is inhibited, were recruited to substantiated our in vitro results. […] With the stimulation of FCS, we also observed the similar regulation on Stat3 and MAPKs pathways depicted in Fig. 8.

Hek293T cells = experiment: (iPS)-Colony formation and EMT in Hek293T; type: cell-based, human
Method: Cell culture: HeLa and Hek293T were cultured in DMEM (PAA) containing 10% FCS (PAA) and 1% PS (PAA). HFF (human foreskin fibroblasts) were cultured in DMEM containing 15% FCS and 1%PS. Mouse embryonic fibroblasts were cultured in DMEM containing 10% NCS (LifeTechnologies) and 1% PS. The cells were maintained under 5% CO2 at 37°C in a humidified atmosphere. The cells were treated with various compounds as indicated in context. The images were taken at indicated time points using a Keyence digital-microskop BZ-800.
(iPS)-Colony formation and spontaneous differentiation in HEK: 10^5 cells/well Hek 293T were seeded in a 12-well plate in 10% FCS with 1mL/well). Next day, the cells were treated with E738 (8µM). […] Afterwards, the cells were incubated further in the presence of 10% FCS and the medium was refreshed every 3 days. The spontaneous differentiation occurred after 10 days incubation.

CDK4/CycD1 = target: T1, CDK4/CycD1 (Homo sapiens, UniProt P11802); experiment: Kinase profiling assay (ProQinase), residual activity; type: biochemical; settings: 1µM E738, 1µM ATP, recombinant protein kinase
T1 construct: purchased ProQinase
Method: (§3) Kinase Assay: The Kinase profiling assay was performed by ProQinase as previously described (Cheng et al.201 0).
(§4) Because E738 initially was designed as a protein kinase inhibitor, we asked if E738 induced dephoshorylation and degradation are caused by certain protein kinases. Thus we exploited protein kinase profiling containing several Smad-relative protein kinases like CDKs and GSK3ß to overview the inhibitory effect of E738 in vitro. The residual activities of kinases were measured by using recombinant protein kinases and proper substrates after treatment with 1µM E738 in the presence of 1µM ATP as our previously described. […] However the mechanism was still remained to elucidate. Recently, researchers argued that Raf kinase inhibitor may induce the activation of MAPKs in vitro and in vivo leading to the failure of cancer therapy (Hatzivassiliou nature 2010 464 431-436, Heidol cell 2010 140 209-221, Murphy PNAS 2010 107 9 4299-4304). We assumed that the indirubin activated MAPKs might be due to its inhibition against Raf kinase. Furthermore, the Lin et. al. described Stat3 inhibitor could disrupt TGFß signaling (Lin oncogene 200928 961-972). Therefore we included Raf and Stat3-relative protein kinases, like Jak, Kit and Src, in this small screening.

GSK3ß = target: T2, GSK3ß (Homo sapiens, UniProt P49841); experiment: as above; type: biochemical; settings: read-out: residual activity of GSK3ß
T2 construct: purchased ProQinase
Method: as §3, §4

CDK5/p35 = target: T3, CDK5/p35 (Homo sapiens, UniProt Q00535); experiment: as above; type: biochemical; settings: 1µM E738, 1µM ATP, recombinant protein kinase
T3 construct: purchased ProQinase
Method: as §3, §4

CDK2/CycA = target: T4, CDK2/CycA (Homo sapiens, UniProt P24941); experiment: as above; type: biochemical; settings: 1µM E738, 1µM ATP, recombinant protein kinase
T4 construct: purchased ProQinase
Method: as §3, §4

CDK2/CycE = target: T5, CDK2/CycE (Homo sapiens, UniProt P24941); experiment: as above; type: biochemical; settings: 1µM E738, 1µM ATP, recombinant protein kinase
T5 construct: purchased ProQinase
Method: as §3, §4

CDK1/CycB1 = target: T6, CDK1/CycB1 (Homo sapiens, UniProt P06493); experiment: as above; type: biochemical; settings: 1µM E738, 1µM ATP, recombinant protein kinase
T6 construct: purchased ProQinase
Method: as §3, §4

ß-Catenin = experiment: Immunoblot of non-phosphorylation-ß-Catenin in HeLa cells; type: cell-based, human; settings: 1 h, BMP2 (100ng/mL), already from 0.1µM
Method: as §1, §2

tumor cells = experiment: MTT assay, tumor cells; type: cell-based; settings: various cancer cell lines, read-out: IC50-values, tumor cells growth
Nanog = Nanog overexpression in Nanog-GFP Hek293T cells; type: cell-based, human; settings: 1µM E738, 24h

T1 sequence (P11802 whole entry): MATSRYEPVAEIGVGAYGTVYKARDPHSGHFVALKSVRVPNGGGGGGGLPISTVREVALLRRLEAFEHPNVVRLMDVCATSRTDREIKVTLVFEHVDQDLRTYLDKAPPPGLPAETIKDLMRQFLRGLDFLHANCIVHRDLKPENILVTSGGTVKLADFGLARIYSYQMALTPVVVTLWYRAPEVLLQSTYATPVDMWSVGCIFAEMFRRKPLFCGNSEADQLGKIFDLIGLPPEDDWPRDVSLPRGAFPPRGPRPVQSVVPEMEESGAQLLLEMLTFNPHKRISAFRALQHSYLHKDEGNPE
T1 sequence (P24385 whole entry partner): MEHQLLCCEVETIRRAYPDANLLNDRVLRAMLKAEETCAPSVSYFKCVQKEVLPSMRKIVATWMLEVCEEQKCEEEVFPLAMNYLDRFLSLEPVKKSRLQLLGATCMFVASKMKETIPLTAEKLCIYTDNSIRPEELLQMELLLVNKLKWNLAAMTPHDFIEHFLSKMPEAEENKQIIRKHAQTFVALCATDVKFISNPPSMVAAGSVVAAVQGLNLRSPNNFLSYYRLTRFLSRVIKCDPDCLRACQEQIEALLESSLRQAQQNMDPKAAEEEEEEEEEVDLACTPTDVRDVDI
T6 sequence (P06493 whole entry): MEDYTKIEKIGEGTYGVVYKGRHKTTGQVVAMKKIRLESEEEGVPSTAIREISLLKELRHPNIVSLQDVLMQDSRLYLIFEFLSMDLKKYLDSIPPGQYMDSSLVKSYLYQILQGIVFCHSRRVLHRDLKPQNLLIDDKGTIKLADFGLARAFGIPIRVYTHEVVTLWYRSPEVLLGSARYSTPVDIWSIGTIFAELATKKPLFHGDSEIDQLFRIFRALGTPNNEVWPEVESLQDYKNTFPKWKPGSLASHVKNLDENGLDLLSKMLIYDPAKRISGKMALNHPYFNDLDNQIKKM
T6 sequence (P14635 whole entry partner): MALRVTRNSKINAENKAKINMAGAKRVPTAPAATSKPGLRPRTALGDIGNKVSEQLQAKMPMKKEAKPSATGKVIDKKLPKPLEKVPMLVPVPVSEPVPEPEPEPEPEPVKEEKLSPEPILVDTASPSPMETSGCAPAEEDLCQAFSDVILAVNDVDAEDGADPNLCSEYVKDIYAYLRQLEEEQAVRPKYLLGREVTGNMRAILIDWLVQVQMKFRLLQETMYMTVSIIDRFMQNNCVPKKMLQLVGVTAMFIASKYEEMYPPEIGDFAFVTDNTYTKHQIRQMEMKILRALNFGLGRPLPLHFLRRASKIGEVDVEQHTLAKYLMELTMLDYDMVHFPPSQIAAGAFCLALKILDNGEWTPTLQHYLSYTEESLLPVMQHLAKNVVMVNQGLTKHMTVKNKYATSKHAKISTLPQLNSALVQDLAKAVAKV
T3 sequence (Q00535 whole entry): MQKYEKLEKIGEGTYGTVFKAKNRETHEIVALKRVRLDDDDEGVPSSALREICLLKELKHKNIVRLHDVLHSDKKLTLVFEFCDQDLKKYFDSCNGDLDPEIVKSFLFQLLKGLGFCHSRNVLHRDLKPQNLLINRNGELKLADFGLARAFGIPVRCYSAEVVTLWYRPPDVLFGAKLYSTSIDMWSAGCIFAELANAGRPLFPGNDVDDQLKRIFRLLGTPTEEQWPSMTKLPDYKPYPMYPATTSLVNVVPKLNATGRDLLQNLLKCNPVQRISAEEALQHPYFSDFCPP
T3 sequence (Q15078 whole entry partner): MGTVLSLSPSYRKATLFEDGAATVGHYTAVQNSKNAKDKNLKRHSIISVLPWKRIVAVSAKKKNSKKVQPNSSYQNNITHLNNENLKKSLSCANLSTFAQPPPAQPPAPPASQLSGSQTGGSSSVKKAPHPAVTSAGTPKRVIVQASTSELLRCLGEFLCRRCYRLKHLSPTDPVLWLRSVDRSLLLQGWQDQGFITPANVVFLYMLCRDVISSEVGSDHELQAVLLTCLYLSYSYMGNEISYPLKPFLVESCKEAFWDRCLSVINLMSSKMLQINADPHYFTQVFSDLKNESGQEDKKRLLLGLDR
T2 sequence (P49841 whole entry): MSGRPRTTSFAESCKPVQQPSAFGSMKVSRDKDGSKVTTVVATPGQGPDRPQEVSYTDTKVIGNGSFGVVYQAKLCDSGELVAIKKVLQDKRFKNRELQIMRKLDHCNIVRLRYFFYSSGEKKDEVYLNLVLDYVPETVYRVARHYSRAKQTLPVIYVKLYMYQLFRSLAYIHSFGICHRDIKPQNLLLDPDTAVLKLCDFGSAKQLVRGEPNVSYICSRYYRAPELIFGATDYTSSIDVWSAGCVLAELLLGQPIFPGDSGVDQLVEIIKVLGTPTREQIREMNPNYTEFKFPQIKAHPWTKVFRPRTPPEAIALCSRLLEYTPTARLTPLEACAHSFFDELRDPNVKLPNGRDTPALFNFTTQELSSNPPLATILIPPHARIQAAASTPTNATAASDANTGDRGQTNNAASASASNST

Q: Which results are given for `COc1ccc2c(c1)C(=C1Nc3ccccc3C1=NOCC(O)CO)C(=O)N2` (stereo not shown) [E738]?
A: pan Smad1/5/8 by immunostaining (Smad1/5/8): depletion of pan Smad1/5/8 as early as 12h treatment; BMP- and TGFß-relative R-Smads ([1]; BMP2 (100ng/mL) or TGFß (20ng/mL), 4h treatment): influenced on both BMP- and TGFß-relative R-Smads in concentration dependent manner; P- and pan-Smads (R-Smads) ([1]; TGFß (20ng/mL), 24h, E738 (1µM), Bio (5µM), DM (1µM), Repsox (10µM)): abolishment of both BMP- and TGFß-relative R-Smads; phosphorylation of Stat3 (Stat3): repressed phosphorylation of Stat3; cell mobility (EMT) and cell dedifferentiation (Hek293T cells; Hek293T, 4 days treatment): enhances cell mobility (EMT) and induces cell dedifferentiation; iPS-like (embryonic stem cell-like) colony formation (Hek293T cells; Hek 293T, E738 (8µM) 24h, floating cells washed and replated in 10% FCS for 3 days): embryonic stem cell-like colony appeared after 3 days; also recorded: iPS-like colonies were observed; EMT (Hek293T cells; Hek 293T, E738 (8µM), 24h, 10% FCS): a clear EMT could be observed; remaining activity at 1 µM (CDK4/CycD1): 23%; remaining activity at 1 µM (GSK3ß): 6%; remaining activity at 1 µM (CDK5/p35): 16%; remaining activity at 1 µM (CDK2/CycA): 10%; remaining activity at 1 µM (CDK2/CycE): 8%; remaining activity at 1 µM (CDK1/CycB1): 16%; non-phosphorylation-ß-Catenin (NP-ß-Catenin, Ser33/37/Thr41) (ß-Catenin): highly stabilized ß-Catenin; IC50 (tumor cells): < 1000 nM; Nanog-overexpression (Nanog): promotes Nanog-overexpression
